Source: patent EP3720857B1, “2-OXO-5H-CHROMENO[4,3-B]PYRIDINES FOR USE IN THE TREATMENT OF HEPATITIS B” (Galapagos NV, priority 2017, dated 2019)

Test system: hepatitis virus B (HBV) infection
Test: iCell hepatocytes assay, standard assay (HBc staining, HBe ELISA, HBs ELISA)
Assay type: cell-based
Settings: for EC50: Hepatitis B virus, Hepatocyte
Method: The principle of the iCell hepatocyte 2.0 96 well assay is to evaluate the inhibitory effect of a test compound on hepatitis virus B (HBV) infection. In this assays the HBV core antigen (HBcAg) and/or extracellular antigen (HBeAg) and/or surface antigen (HBsAg) are used as a marker for HBV infection. Nuclei count may be used as an indication for compound toxicity.
In the standard assay set-up HBV infection and compound addition are performed on the same day, in the delayed assay the compounds are added three days after HBV infection. iCell hepatocytes 2.0 are human hepatocytes derived from induced pluripotent stem cells (iPSc) purchased from Cellular Dynamics international (CDI, R1027).
At day 0, iCell hepatocytes 2.0 (CDI, R1027) are thawed and seeded in collagen I coated 96well plates at 112 000c/well (100µL) in plating medium (RPMI supplemented with B27 supplement, 20 ng/mL recombinant human oncostatin M (OSM), 25µg/mL gentamicin, 0.1µM Dexamethasone and iCell medium supplement provided by CDI). Plates are incubated at 37°C, 5% CO2 and daily refreshed with plating medium for the following four days.
On day 5 and 6, plates are refreshed with 100µL maintenance medium (RPMI supplemented with B27 supplement, 25µg/mL gentamicin, 0.1µM Dexamethasone, and iCell medium supplement provided by CDI) and incubated at 37°C, 5% CO2 until the following day.
On day 7 (day of infection) the supernatant is removed from the assay plates and 25 µL of 1/250 diluted compound in maintenance medium and 25 µL of HBV mix (HBV virus, 8% PEG, 0% or 4% DMSO in maintenance medium) are added to the assay plates. Compounds series are either prepared manually as a 6 point serial dilution using 1/5 dilution steps in 100% DMSO or as an 8 point serial dilution using 1/3 dilution steps in 100% DMSO or as an 8 point serial dilution using ¼ dilution steps, normalized for 0.2% DMSO. The assay plates were incubated overnight at 37°C, 5% CO2.
On day 1 post infection (day 8) 50 µL of HBV/cpd mix is removed from the assay plates and refreshed with 100 µL of compound series diluted 1/500 in maintenance medium. The assay plates are incubated at 37°C, 5% CO2 and refreshed with compound series diluted 1/500 in maintenance medium every other day (at day 3 and day 5 post infection) or after three days of incubation (at day 4 post infection).
At day 7 post infection (day 14), 100µL of supernatant is harvested and frozen at -20°C. The cells were fixed with 50 µL of 3.7% formaldehyde and incubated for 30 min at room temperature. After fixation, cells are washed four times with phosphate buffer saline (PBS) with the plate washer (Select 405, microplate washer, Biotek) and subjected to HBc staining. The harvested supernatant is used for HBe and/or HBs ELISA.
The assay plates are blocked with blocking buffer (2% FBS, 3% BSA, 0.2% TritonX100 in PBS) for 1 h at room temperature.
After blocking, the assay plates are tapped manually and incubated with 50 µL diluted primary antibody (1/700 Rabbit-anti-HBc Ag, Dako, B0586 or 1/350 Rabbit-anti-HBc Ag, Invitrogen, PA516368) in blocking buffer and incubated for 90 min at room temperature.
After 4 washes of PBST (1XPBS + 0.05% Tween) with the plate washer, the assay plates are incubated with 100 µL of secondary antibody (Donkey-anti-rabbit Alexa 488, Lifetechnologies, A21206) 1/500 diluted in blocking buffer and incubated for 60 min at room temperature in the dark, then washed 4 times with PBST on the plate washer and incubated with 100µL of DAPI (Sigma D9542, stock 5mg/mL) 1/10000 diluted in PBS for 15-30 min at room temperature in the dark.
Finally, the assay plates are read out on a InCell Analyzer 2200 (GE Healthcare).
A white lumitrac 600 384 well plate iss coated with 40µL of capture antibody (monoclonal Mouse-anti-HBe Ag, Fitzgerald, 10-H10) diluted 1/2000 in coating buffer (0.1M sodium carbonate pH 9.5) and incubated overnight at 4°C. […]

| Structure (SMILES) | Standard assay HBs ELISA % inhibition | EC50 [nM] |
| --- | --- | --- |
| COCCCOc1cc2c(cc1F)-c1c(cc(C(=O)O)c(=O)n1C1CC1)C(C(C)C)O2 (stereo not drawn) [Compound 1, 1-cyclopropyl-9-fluoro-5-isopropyl-8-(3-methoxypropoxy)-2-oxo-5H-chromeno[4,3-b]pyridine-3-carboxylic acid] | ++ (50-75%) | 0.001 to 20 |
| COCCCOc1cc2c(cc1Cl)-c1c(cc(C(=O)O)c(=O)n1C1CC1)CO2 [Compound 6, 9-chloro-1-cyclopropyl-8-(3-methoxypropoxy) -2-oxo-5H-chromeno[4,3-b]pyridine-3-carboxylic acid] | +++ (75-100%) | 0.001 to 20 |
| CCC1Oc2cc(OCCCOC)c(F)cc2-c2c1cc(C(=O)O)c(=O)n2C1CC1 (stereo not drawn) [Compound 16, 1-cyclopropyl-5-ethyl-9-fluoro-8-(3-methoxypropoxy) -2-oxo-5H-chromeno[4,3-b]pyridine-3-carboxylic acid] | ++ (50-75%) | 22 to 50 |
| COCCCOc1cc2c(cc1Cl)-c1c(cc(C(=O)O)c(=O)n1C1CC1)C(C(C)(C)COC)O2 (stereo not drawn) [Compound 19, 9-chloro-1-cyclopropyl-5-(2-methoxy-1,1-dimethyl-ethyl)-8-(3-methoxypropoxy) -2-oxo-5H-chromeno[4,3-b]pyridine-3-carboxylic acid] | ++ (50-75%) | 22 to 50 |
| COCCCOc1cc2c(cc1F)-c1c(cc(C(=O)O)c(=O)n1C1CC1)[C@H](C(C)C)O2 [Compound 44, (5S)-1-cyclopropyl-9-fluoro-5-isopropyl-8-(3-methoxypropoxy)-2-oxo-5H-chromeno[4,3-b]pyridine-3-carboxylic acid] | ++ (50-75%) | 22 to 50 |
| COCCCOc1cc2c(cc1Cl)-c1c(cc(C(=O)O)c(=O)n1C1CC1)[C@H](C1(C)COC1)O2 [Compound 46, (5R)-9-chloro-1-cyclopropyl-8-(3-methoxypropoxy)-5-(3-methyloxetan-3-yl)-2-oxo-5H-chromeno[4,3-b]pyridine-3-carboxylic acid] | +++ (75-100%) | 0.001 to 20 |
